Laboratory results from patent publication US20240300886A1, “ARYLCYCLOHEXYLAMINE DERIVATIVES AND THEIR USE IN THE TREATMENT OF PSYCHIATRIC DISORDERS” (GILGAMESH PHARMACEUTICALS, INC., priority 2021, published 2024).

Tests used:
[1] = Oral bioavailability in rats, Method A (plasma PK); assay type: in vivo, Sprague Dawley rats; settings: rat plasma
Experimental: Animals. Male Sprague Dawley rats were used in these studies. Animals were randomly assigned to treatment groups and were fasted for 4 h before dosing.
(§1) Drugs. Test compounds were dissolved in normal saline and administered intravenously (iv) or orally (po) at a dose of 10 mg/kg (calculated based on freebase) and at a volume of 5 mL/kg body weight. Compounds were tested as the racemates or pure enantiomers, as indicated.
Sample Collection and Bioanalysis. Blood samples were collected under 2,2,2-tribromoethanol anesthesia (150 mg/kg, ip) from the orbital sinus at 0.083, 0.25, 0.5, 1, 2, 4, 8 and 24 h (4 animals per time point) into microcontainers containing K2EDTA. Immediately after collection of blood, rats were euthanized by […]. All samples were immediately processed, flash-frozen, and stored at −70° C. until subsequent analysis. Plasma samples were separated by centrifugation of whole blood and aliquots (50 μL) were mixed with 200 μL of internal standard solution (400 ng/mL in 1:1 v/v CH3CN:MeOH). After mixing by pipetting and centrifuging for 4 min at 6,000 rpm, 0.5 μL of each supernatant was analyzed for drug using a fit-for-purpose liquid chromatography-tandem mass spectrometry (LC-MS/MS) method, with authentic samples of each analyte used for calibration and identification.
(§2) Data Analysis. The drug concentrations of samples below the lower limit of quantitation (LLOQ) were designated as zero. Pharmacokinetic data analysis was performed using noncompartmental, bolus injection or extravascular input analysis models in WinNonlin 5.2 (PharSight). Data points below LLOQ were presented as missing to improve validity of t1/2 calculations.

[2] = Oral bioavailability in mice, Method A (plasma and brain PK); assay type: in vivo, CD-1 mice; settings: for half-life / Cmax / AUC(0-inf): male; for F: 10 mg/kg
Experimental: Animals. Male CD-1 mice were used in these studies. Animals were randomly assigned to treatment groups and were fasted for 4 h before dosing.
as §1
Sample Collection and Bioanalysis. Blood samples were collected under 2,2,2-tribromoethanol anesthesia (150 mg/kg, ip) from the orbital sinus at 0.083, 0.25, 0.5, 1, 2, 4, 8 and 24 h (4 animals per time point) into microcontainers containing K2EDTA. Immediately after collection of blood, mice were euthanized by cervical dislocation and brain samples were collected at the same time points. All samples were immediately processed, flash-frozen, and stored at −70° C. until subsequent analysis. Plasma samples were separated by centrifugation of is whole blood and aliquots (50 μL) were mixed with 200 μL of internal standard solution (400 ng/mL in 1:1 v/v CH3CN:MeOH). After mixing by pipetting and centrifuging for 4 min at 6,000 rpm, 0.5 μL of each supernatant was analyzed for drug using a fit-for-purpose liquid chromatography-tandem mass spectrometry (LC-MS/MS) method, with authentic samples of each analyte used for calibration and identification. Brain samples (weight 100 mg±1 mg) were dispersed in 500 μL of internal standard solution (400 ng/mL in 4:1 v/v MeOH:water) using zirconium oxide beads (115 mg±5 mg) in The Bullet Blender® homogenizer for 30 s at speed 8. After homogenization, the samples were centrifuged for 4 min at 14,000 rpm and 0.5 μL of each supernatant was analyzed for drug using a fit-for-purpose LC-MS/MS method, with authentic samples of each analyte used for calibration and identification.
as §2, with “tin” for “t1/2”

Which results are given for CNC1(c2ccccc2Cl)CCCCC1=O (racemic) [racemic ketamine, ketamine]?
AUC(0-inf) ([1]; male, Sprague Dawley, 10 mg/kg iv, read-out: AUC0-inf (iv) (converted)): 1350 ng·h/mL; half-life ([1]; male, Sprague Dawley, 10 mg/kg iv, read-out: t1/2 (iv)): 41.6 min; Cmax ([1]; male, Sprague Dawley, 10 mg/kg po): 190 ng/mL; AUC(0-inf) ([1]; male, Sprague Dawley, 10 mg/kg po, read-out: AUC0-inf (po) (converted)): 125 ng·h/mL; half-life ([1]; male, Sprague Dawley, 10 mg/kg po, read-out: t1/2 (po)): 33.7 min; F ([1]; 10 mg/kg): 9.07%; half-life ([2]; CD-1, mouse brain, 10 mg/kg iv, read-out: t1/2 (iv)): 8.66 min; Cmax ([2]; CD-1, mouse brain, 10 mg/kg po): 521 ng/g; half-life ([2]; CD-1, mouse brain, 10 mg/kg po, read-out: t1/2 (po)): 12.2 min; AUC(0-inf) ([2]; CD-1, mouse plasma, 10 mg/kg iv, read-out: AUC0-inf (iv) (converted)): 633 ng·h/mL; half-life ([2]; CD-1, mouse plasma, 10 mg/kg iv, read-out: t1/2 (iv)): 8.46 min; Cmax ([2]; CD-1, mouse plasma, 10 mg/kg po): 253 ng/mL; AUC(0-inf) ([2]; CD-1, mouse plasma, 10 mg/kg po, read-out: AUC0-inf (po) (converted)): 96.8 ng·h/mL; half-life ([2]; CD-1, mouse plasma, 10 mg/kg po, read-out: t1/2 (po)): 11.5 min; AUC0-inf (iv) ([2]; mouse brain, 10 mg/kg iv): 97,000 ng*min/g; AUC0-inf (po) ([2]; mouse brain, 10 mg/kg po): 6,030 ng*min/g; F ([2]; mouse brain, calculated based on brain exposure): 6.2%; F ([2]; mouse plasma): 15%
